Results taken from EP0431076B1, “PENTACYCLIC TRITERPENOID COMPOUNDS AS TOPOISOMERASE INHIBITORS OR CELL DIFFERENTIATION INDUCERS” (RESEARCH TRIANGLE INSTITUTE, priority 1988, dated 1990).

Biological target: T1, DNA topoisomerase I (Homo sapiens, UniProt P11387)
T1 construct: DNA topoisomerase I was purified to homogeneity from chronic human leukemic cells; from tissue; host or cells: chronic human leukemic cells (endogenous enzyme, purified)
T1 sequence (P11387 1-765): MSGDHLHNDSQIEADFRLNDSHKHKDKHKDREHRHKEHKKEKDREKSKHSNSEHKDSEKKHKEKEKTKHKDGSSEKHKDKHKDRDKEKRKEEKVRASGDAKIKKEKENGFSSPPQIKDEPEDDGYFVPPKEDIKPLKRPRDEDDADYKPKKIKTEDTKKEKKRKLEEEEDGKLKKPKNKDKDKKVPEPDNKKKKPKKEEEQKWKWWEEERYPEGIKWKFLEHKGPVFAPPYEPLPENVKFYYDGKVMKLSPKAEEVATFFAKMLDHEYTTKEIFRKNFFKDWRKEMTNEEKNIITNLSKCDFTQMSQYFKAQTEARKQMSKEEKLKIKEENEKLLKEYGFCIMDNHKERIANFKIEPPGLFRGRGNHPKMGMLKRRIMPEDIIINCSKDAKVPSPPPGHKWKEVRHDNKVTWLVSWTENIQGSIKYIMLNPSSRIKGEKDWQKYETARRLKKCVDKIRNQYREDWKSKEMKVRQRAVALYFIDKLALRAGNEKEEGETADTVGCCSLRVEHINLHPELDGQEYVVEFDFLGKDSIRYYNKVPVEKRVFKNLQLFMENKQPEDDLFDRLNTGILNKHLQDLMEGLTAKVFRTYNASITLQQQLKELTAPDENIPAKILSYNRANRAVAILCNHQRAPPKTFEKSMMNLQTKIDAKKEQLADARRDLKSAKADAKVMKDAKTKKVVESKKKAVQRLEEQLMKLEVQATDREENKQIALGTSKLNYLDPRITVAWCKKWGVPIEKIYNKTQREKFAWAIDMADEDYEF
Experiment: Topoisomerase I inhibition, supercoiled pBR 322 DNA relaxation assay
Type: biochemical
Conditions: gel analysis, Figure 5
Source text: Topoisomerase I inhibitory activity was monitored by using the supercoiled pBR 322 DNA relaxation assay according to a published procedure [Liu et al., Proc. Natl. Acad. Sci., U.S.A., 76, 3487 ([…])].
DNA topoisomerase I was purified to homogeneity from chronic human leukemic cells. Plasmid pBR 322 DNA was purified by phenol deproteinization of cleared lysates followed by CsCl/ethidium isopycnic centrifugation and gel filtration.

Row | SMILES | potency in topoisomerase I inhibition relative to standard camptothecin (fold potency versus camptothecin) [X] | potency in topoisomerase I inhibition compared with standard camptothecin (in words)
1 | CC(=O)O[C@@H]1CC[C@@]2(C)[C@@H](CC[C@]3(C)[C@@H]2CC=C2[C@@H]4CC(C)(C)CC[C@]4(C)CC[C@]23C)[C@@]1(C)C(=O)O [A-1, α-boswellic acid acetate] | ~3 | 
2 | CC(=O)O[C@@H]1CC[C@@]2(C)[C@@H](CC[C@]3(C)[C@@H]2CC=C2[C@@H]4[C@@H](C)[C@H](C)CC[C@]4(C)CC[C@]23C)[C@@]1(C)C(=O)O [B-1, β-boswellic acid acetate] |  | comparable potency
